These results are taken from article PMC8876855, “AsKC11, a Kunitz Peptide from Anemonia sulcata, Is a Novel Activator of G Protein-Coupled Inward-Rectifier Potassium Channels” (Marine Drugs, 2022).

The subject of one series is GIRK channels. The settings on record: ref [3],[38],[46]; cited from earlier work. The text has this:
(§1) To better understand the potential of activating neuronal GIRK1/2 channels for therapeutic intervention, selective and potent activators have been developed for GIRK channels. […] These activators are weak and nonspecific since they exert effects in the millimolar range and target several types of ion channels at the same range of concentrations. Thus, early investigation of the pathological and physiological relevance of GIRK channels was hampered partly by the lack of potent and selective probes. ...

The next series deals with GIRK1/2 channels. The settings on record: cited from earlier work.
Excerpt: as §1

In the next series the test system is GIRK2 channel. The settings on record: ref [2],[16]; cited from earlier work. The source says:
These activators are weak and nonspecific since they exert effects in the millimolar range and target several types of ion channels at the same range of concentrations. Thus, early investigation of the pathological and physiological relevance of GIRK channels was hampered partly by the lack of potent and selective probes. ...

For series [1] the following is noted: cited from earlier work. The source says:
To better understand the potential of activating neuronal GIRK1/2 channels for therapeutic intervention, selective and potent activators have been developed for GIRK channels. […] Howeve ...

Series [2] addresses T1, mGIRK1/2 (Mus musculus, UniProt P48542+P63250).
T1 construct: expressed in transfected cells; host or cells: Xenopus laevis oocytes injected with cRNA
T1 sequence (P63250 1-501): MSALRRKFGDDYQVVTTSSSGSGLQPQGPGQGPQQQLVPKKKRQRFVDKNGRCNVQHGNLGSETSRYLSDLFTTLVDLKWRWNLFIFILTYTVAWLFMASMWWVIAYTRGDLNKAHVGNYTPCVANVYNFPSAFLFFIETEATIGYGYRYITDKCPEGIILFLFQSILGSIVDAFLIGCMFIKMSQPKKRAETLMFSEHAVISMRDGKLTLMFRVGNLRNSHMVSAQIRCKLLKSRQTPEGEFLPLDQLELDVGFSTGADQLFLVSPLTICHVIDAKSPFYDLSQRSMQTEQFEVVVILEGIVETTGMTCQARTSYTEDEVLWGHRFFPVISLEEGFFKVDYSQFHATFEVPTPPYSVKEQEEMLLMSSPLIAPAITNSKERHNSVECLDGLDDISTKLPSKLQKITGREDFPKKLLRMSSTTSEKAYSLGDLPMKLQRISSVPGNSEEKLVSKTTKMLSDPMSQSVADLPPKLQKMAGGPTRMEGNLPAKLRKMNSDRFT
T1 sequence (P48542 1-425): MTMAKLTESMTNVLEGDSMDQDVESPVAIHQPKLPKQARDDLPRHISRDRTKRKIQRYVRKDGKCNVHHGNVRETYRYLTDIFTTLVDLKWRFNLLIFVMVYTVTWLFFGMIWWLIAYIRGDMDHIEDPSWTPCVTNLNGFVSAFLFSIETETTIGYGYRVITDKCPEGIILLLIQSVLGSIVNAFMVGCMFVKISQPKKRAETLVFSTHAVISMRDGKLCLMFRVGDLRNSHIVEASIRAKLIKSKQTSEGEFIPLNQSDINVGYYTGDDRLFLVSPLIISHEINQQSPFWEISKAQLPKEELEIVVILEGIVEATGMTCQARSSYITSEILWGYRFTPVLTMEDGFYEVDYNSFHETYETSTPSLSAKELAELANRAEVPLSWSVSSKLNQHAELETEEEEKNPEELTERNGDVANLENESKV
The series is described as follows: TEVC, K+ current enhancement through GIRK1/2 expressed in Xenopus oocytes. Type of series: cell-based. The settings on record: 48 μM AsKC11; heterotetrameric GIRK1/2 in oocytes; mean ± SD, n = 4; data not shown. The text has this: To identify the novel activator of GIRK1/2 channels, we first tested the effects of venom fractions previously purified from the venom of Anemonia sulcata on whole-cell currents in oocytes expressing GIRK1/2 channels. […] The oocytes coinjected with GIRK1/2 cRNA were voltage-clamped at −90 mV. To increase the GIRK current at the negative potential, a high-potassium extracellular buffer (HK) was used, which allowed for more obvious currents and accurate measurement. Thus, after exchanging ND96 to HK, basal K^+ currents (IK,basal) were observed and were carried by GIRK1/2 channels (Figure 1a).
The potency of AsKC11 to enhance inward K^+ currents through GIRK1/2 channels was studied by applying increasing concentrations of AsKC11 (2.4, 12, 24, and 48 µM) to oocytes expressing GIRK1/2 channels. These oocytes were subjected to a 1-s voltage ramp protocol from −150 to +60 mV from a holding potential of −20 mV.
All procedures for the use and handling of adult female Xenopus laevis frogs (CRB Xénopes, Rennes, France) were approved by the Animal Ethics Committee of the KU Leuven (Project No. P186/2019) following regulations of the European Union (EU) concerning the welfare of laboratory animals, as declared in Directive 2010/63/EU. […] After recovery from anesthesia, frogs were returned to their tanks in the Aquatic Facility of KU Leuven and were monitored daily. […]

The target in series [3] is T1, mGIRK1/2. The series is described as follows: Kinetics and affinity of AsKC11 on GIRK1/2 channels (wash-in/wash-out, bimolecular scheme). Type of series: cell-based. The source says:
As shown in the abovementioned results, AsKC11 binding was reversible. We next explored whether the AsKC11-elicited activation of GIRK1/2 channels followed a kinetic behavior of a simple bimolecular reaction. The current activation upon AsKC11 application and recovery upon AsKC11 removal followed a single exponential time course compatible with a bimolecular reaction scheme (See Section 4).
For the expression of potassium channels (hKV1.1, hKV1.2, hKV1.3, rKV1.4, rKV1.6, and mGIRK1/2, mGIRK2 alone, or IRK1) in Xenopus oocytes, the linearized plasmids were transcribed using the T3, T7, or SP6 mMESSAGEmMACHINE transcription kit (Ambion, Austin, TX, USA). Following the cRNA injection into oocytes and 1–4 days of incubation at 16 °C, electrophysiological experiments were conducted using the two-electrode voltage-clamp (TEVC) GeneClamp 500B (Axon Instruments, San Jose, CA, USA). Electrodes were fabricated from borosilicate glass tubes (1.14 mm outside diameter, 0.7 mm inside diameter) by a programmable microelectrode puller, PUL-1 (World Precision Instruments, Sarasota, FL, USA). Electrodes were filled with 3 M KCl and had tip resistances from 0.8 to 1.5 MΩ. […]

A further series concerns the target T2, GIRK1/2 channel (Mus musculus, UniProt P63250).
T2 chain 1: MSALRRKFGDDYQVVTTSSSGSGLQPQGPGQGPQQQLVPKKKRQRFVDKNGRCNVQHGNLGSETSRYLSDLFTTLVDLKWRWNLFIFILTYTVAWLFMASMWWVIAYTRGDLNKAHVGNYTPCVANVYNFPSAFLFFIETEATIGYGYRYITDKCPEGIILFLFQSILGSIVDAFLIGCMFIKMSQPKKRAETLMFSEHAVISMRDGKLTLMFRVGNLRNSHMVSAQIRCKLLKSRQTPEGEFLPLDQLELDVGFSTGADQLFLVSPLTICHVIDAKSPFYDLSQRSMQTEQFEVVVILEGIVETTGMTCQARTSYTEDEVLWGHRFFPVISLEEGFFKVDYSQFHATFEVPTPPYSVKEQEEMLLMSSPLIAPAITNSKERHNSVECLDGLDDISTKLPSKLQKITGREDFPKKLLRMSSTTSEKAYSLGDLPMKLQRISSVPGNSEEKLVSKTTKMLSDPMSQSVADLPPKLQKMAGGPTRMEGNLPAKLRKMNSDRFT
T2 chain 2: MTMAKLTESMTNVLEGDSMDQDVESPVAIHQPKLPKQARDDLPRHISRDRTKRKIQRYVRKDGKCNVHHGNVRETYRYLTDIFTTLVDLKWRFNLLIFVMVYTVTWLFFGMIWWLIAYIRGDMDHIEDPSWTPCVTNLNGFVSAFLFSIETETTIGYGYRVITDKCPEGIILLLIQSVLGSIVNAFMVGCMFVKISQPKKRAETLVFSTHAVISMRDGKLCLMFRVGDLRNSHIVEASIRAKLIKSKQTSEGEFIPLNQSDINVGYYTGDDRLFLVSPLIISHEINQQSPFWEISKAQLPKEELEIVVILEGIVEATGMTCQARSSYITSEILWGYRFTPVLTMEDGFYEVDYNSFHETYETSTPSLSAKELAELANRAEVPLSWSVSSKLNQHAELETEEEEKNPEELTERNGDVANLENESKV
The series is described as follows: two-electrode voltage clamp kinetics (koff/kon) in Xenopus oocytes.

Bridges are numbered along the chain shown (N, C = ends). Where no end group is shown, it is not given here.

In the case of `C[C@@H]1O[C@@H](O[C@H]2[C@H](Oc3cc(O)c4c(c3)O[C@H](c3ccc(O)cc3)CC4=O)O[C@H](CO)[C@@H](O)[C@@H]2O)[C@H](O)[C@H](O)[C@H]1O` [naringin], the “potency for activating GIRK channels” value in the series with GIRK channels is recorded as “very low potency”.
For `Cc1cc(NC(=O)Nc2ccc(F)c(F)c2)n(-c2ccccc2)n1` [ML297], in the series with GIRK1/2 channels (ref [2],[5],[16]), the “affinity of activity on GIRK1/2” value was “nanomolar range”. In the series with GIRK1/2 channels (ref [2]), the “requirement for GIRK1/2 activation” value is given as “required the presence of the membrane phospholipid phosphatidylinositol 4,5-bisphosphate instead of Gi/o”. Further, the “effect on GIRK2 channel” value with GIRK2 channel is given as “not affect the GIRK2 channel”. For the same molecule, the “effects in animal models” value in series [1] (ref [2],[16]) is “antiepileptic and anxiolytic effects in animal models”. The “pharmacokinetic properties” value in series [1] (ref [2]) is “suboptimal”.
With `CCO` [ethanol], the “potency for activating GIRK channels” value in the series on GIRK channels is listed as “very low potency”.
Turning to “INKDCLLPKVVGFCRARFPRYYYNSSSRRCEKFIYGGCGGNANNFSSYYECHIKCFGPR (disulfide 5-55, 14-38, 30-51) [AsKC11]”, the “enhancement in inward K+ currents, GIRK1/2” value at mGIRK1/2 [2] amounted to 74.1 ± 12.5%. For the same molecule, at mGIRK1/2 [3] (48 μM AsKC11, wash-out, read-out: first-order dissociation rate constant (koff = β)), the koff was determined as 0.00633 s⁻¹. For the same molecule, the kon on mGIRK1/2 [3] (48 μM AsKC11, read-out: second-order association rate constant (α)) came to 78.2 M⁻¹ s⁻¹.

B1: AsKC11 (protein)
chain: INKDCLLPKVVGFCRARFPRYYYNSSSRRCEKFIYGGCGGNANNFSSYYECHIKCFGPR
In the series with GIRK1/2 channel, B1 had a Kd of 80.9 µM.
